Reference: publication PMC7961380, “A Systematic Study of the In Vitro Pharmacokinetics and Estimated Human In Vivo Clearance of Indole and Indazole-3-Carboxamide Synthetic Cannabinoid Receptor Agonists Detected on the Illicit Drug Market” (Molecules, 2021)
Several values for one entry are separate records, joined by “and”; a condition that tells them apart may be missing. Identical values can stand only once. Like-named read-outs stand apart in the source and are kept apart here.

Legend:
[1] = Plasma protein binding by equilibrium dialysis; format: in vitro ADME, human; details: for fraction unbound at 5 h, 10 µg mL^−1: human, pooled human plasma, pH 7.4, equilibrium dialysis 5 h, 37 °C
[2] = system: pooled human cryopreserved hepatocytes (pHHeps); assay: Metabolic stability, pooled human cryopreserved hepatocyte incubations; details: for Predicted In Vivo Hepatic Clearance, CLH: from pHHeps CLint, well-stirred model with plasma fu, Q 21 mL min^−1 kg^−1
[3] = as above; details: human, hepatocytes; for CLint scaled at 0.5 µM: Intrinsic clearance, pHHeps, alternative hepatocyte cell density 99x10^6 hepatocytes per gram liver; for half-life at 0.5 µM: T1/2 (min), pHHeps 0.25 million cells mL^−1, 0.5 µM, 37 °C, n ≥ 3 ± SD
[4] = Short-term plasma stability with and without esterase inhibitors; details: human, pH 7.4, Parent Compound Remaining (%), 3 h, 37 °C
[5] = Metabolic stability, pooled human liver microsome incubations; details: for Predicted In Vivo Hepatic Clearance, CLH: from pHLM CLint, well-stirred model with plasma fu, Q 21 mL min^−1 kg^−1; for CLint scaled at 0.5 µM / half-life at 0.5 µM: human, microsomes; for CLint scaled at 0.5 µM: pH 7.4, Intrinsic clearance; for half-life at 0.5 µM: pH 7.4, T1/2 (min), pHLM 0.5 mg mL^−1, 0.5 µM, NADPH, 37 °C; for half-life at 0.5 µM / Microsomal Intrinsic Clearance, CLint micr: n ≥ 3 ± SD
[6] = 10 µg mL^−1, read-out: PPB (%) (converted)
[7] = plasma, read-out: Fraction Unbound (fu)
[8] = pHHeps, 99x10^6 hepatocytes per gram liver
[9] = Esterase Inhibitors, pH 7.4, BNPP and PMSF 500 µM each
[10] = plasma, No Esterase Inhibitors, pH 7.4, pooled human plasma
[11] = pHLM, alternative microsomal scaling factor 32 mg microsomal protein per gram liver
[12] = pHLM, alternative microsomal scaling factor 45 mg microsomal protein per gram liver
[13] = pHLM, scaling factor 32 mg microsomal protein per gram liver
[14] = pHLM, scaling factor 45 mg microsomal protein per gram liver

SMILES | fraction unbound at 5 h, 10 µg mL^−1 [1, 6] | fraction unbound at 5 h, 10 µg mL^−1 [1, 7] | Predicted In Vivo Hepatic Clearance, CLH [2] | Hepatic extraction ratio, EH ([2]; from pHHeps incubations) | Hepatic extraction ratio, EH [2, 8] | Predicted in vivo hepatic clearance, CLH [2, 8] | % parent compound remaining, Average ([2]; pHHeps, 3 min) | % parent compound remaining, Average ([2]; pHHeps, 6 min) | % parent compound remaining, Average ([2]; pHHeps, 9 min) | % parent compound remaining, Average ([2]; pHHeps, 15 min) | % parent compound remaining, Average ([2]; pHHeps, 30 min) | % parent compound remaining, Average ([2]; pHHeps, 45 min) | % parent compound remaining, Average ([2]; pHHeps, 60 min) | CLint scaled at 0.5 µM [3] | half-life at 0.5 µM [3] | remaining at 3 h, 5 µM [4, 9] | remaining at 3 h, 5 µM [4, 10] | Predicted In Vivo Hepatic Clearance, CLH [5] | Hepatic extraction ratio, EH ([5]; from pHLM incubations) | CLint scaled at 0.5 µM [5, 11] | other results
C=CCCCn1cc(C(=O)N[C@@H](C(=O)OC)C(C)C)c2ccccc21 [(R)-AMB-4en-PICA (7), methyl 3-methyl-2-[(1-pent-4-enylindole-3-carbonyl)amino] butanoate] | 0.059 | 0.059 ± 0.001 | 16.79 ± 1.33 mL/min/kg | 0.80 ± 0.063 | 0.79 ± 0.066 | 16.53 ± 1.39 mL/min/kg | 57.7% | 46.1% | 25.6% | 13.7% | 4.6% | 1.6% | 0.6% | 1470 mL/min/kg | 5.5 ± 2.1 min | 95.5 ± 2.9% | 91.7 ± 1.9% | 11.8 ± 0.97 mL/min/kg | 0.56 ± 0.046 | 286 mL/min/kg | recovery (total peak area in dialysed samples vs 4 °C samples) ([1]; PPB thermal stability control, 5 h): 95 ± 2.0%; CLint scaled at 0.5 µM [5, 12]: 402 mL/min/kg; half-life at 0.5 µM [5]: 4.1 ± 0.75 min; % parent compound remaining, Average ([5]; pHLM, 3 min): 56.4%; % parent compound remaining, Average ([5]; pHLM, 6 min): 36.2%; % parent compound remaining, Average ([5]; pHLM, 9 min): 22.6%; % parent compound remaining, Average ([5]; pHLM, 15 min): 9.6%; % parent compound remaining, Average ([5]; pHLM, 30 min): 1.6%; Microsomal Intrinsic Clearance, CLint micr ([5]; pHLM): 0.348 ± 0.068 mL min^−1 mg Microsomal Protein^−1; Hepatic extraction ratio, EH [5, 13]: 0.44 ± 0.047; Predicted in vivo hepatic clearance, CLH [5, 13]: 9.28 mL/min/kg; Predicted in vivo hepatic clearance, CLH [5, 14]: 11.05 mL/min/kg
C=CCCCn1nc(C(=O)N[C@@H](C(=O)OC)C(C)(C)C)c2ccccc21 [(R)-MDMB-4en-PINACA (5), methyl 3,3-dimethyl-2-[1-(pent-4-en-1-yl)-1H-indazole-3-carboxamido] butanoate] | 0.019 | 0.019 ± 0.0071 | 5.16 ± 0.70 mL/min/kg | 0.25 ± 0.033 | 0.23 ± 0.032 | 4.86 ± 0.67 mL/min/kg | 80.8% | 77.7% | 70.3% | 58.1% | 38.0% | 26.6% | 20.8% | 335 ± 61.6 mL/min/kg | 22 ± 3.6 min | 89.4 ± 3.4% | 87.2 ± 6.9% | 4.94 ± 0.39 mL/min/kg | 0.24 ± 0.019 | 208 mL/min/kg | CLint scaled at 0.5 µM [5, 12]: 292 mL/min/kg; half-life at 0.5 µM [5]: 5.5 ± 0.59 min; % parent compound remaining, Average ([5]; pHLM, 3 min): 68.4%; % parent compound remaining, Average ([5]; pHLM, 6 min): 48.2%; % parent compound remaining, Average ([5]; pHLM, 9 min): 32.3%; % parent compound remaining, Average ([5]; pHLM, 15 min): 14.6%; % parent compound remaining, Average ([5]; pHLM, 30 min): 2.5%; Microsomal Intrinsic Clearance, CLint micr ([5]; pHLM): 0.253 ± 0.026 mL min^−1 mg Microsomal Protein^−1; Hepatic extraction ratio, EH [5, 13]: 0.16 ± 0.014; Predicted in vivo hepatic clearance, CLH [5, 13]: 3.32 mL/min/kg; Hepatic extraction ratio, EH [5, 14]: 0.21 ± 0.017; Predicted in vivo hepatic clearance, CLH [5, 14]: 4.38 ± 0.36 mL/min/kg
COC(=O)[C@@H](NC(=O)c1nn(CCCCCF)c2ccccc12)C(C)C [(S)-5F-AMB-PINACA (10), methyl [1-(5-fluoropentyl)-1H-indazole-3-carbonyl]valinate] | 0.058 | 0.058 ± 0.0008 | 18.25 mL/min/kg and 18.25 ± 0.12 mL/min/kg | 0.87 and 0.87 ± 0.006 | 0.86 ± 0.006 | 18.06 ± 0.13 mL/min/kg | 60.1% | 23.2% | 11.4% | 3.0% | 0.3% | 0.1% | 0.2% | 2220 ± 115 mL/min/kg | 3.2 ± 0.16 min | 89.8 ± 1.5% | 93 ± 6.1% | 17.79 mL/min/kg and 17.79 ± 0.20 mL/min/kg | 0.85 and 0.85 ± 0.010 | 1230 mL/min/kg | CLint scaled at 0.5 µM [5, 12]: 1730 ± 133 mL/min/kg; half-life at 0.5 µM [5]: 0.9 ± 0.07 min; % parent compound remaining, Average ([5]; pHLM, 3 min): 10.6%; % parent compound remaining, Average ([5]; pHLM, 6 min): 1.8%; % parent compound remaining, Average ([5]; pHLM, 9 min): 0.0%; % parent compound remaining, Average ([5]; pHLM, 15 min): 0.0%; % parent compound remaining, Average ([5]; pHLM, 30 min): 0.0%; Microsomal Intrinsic Clearance, CLint micr ([5]; pHLM): 1.494 ± 0.115 mL min^−1 mg Microsomal Protein^−1; Hepatic extraction ratio, EH [5, 13]: 0.77 ± 0.013; Predicted in vivo hepatic clearance, CLH [5, 13]: 16.21 mL/min/kg; Hepatic extraction ratio, EH [5, 14]: 0.83 ± 0.011; Predicted in vivo hepatic clearance, CLH [5, 14]: 17.35 ± 0.22 mL/min/kg
COC(=O)[C@@H](NC(=O)c1cn(CCCCCF)c2ccccc12)C(C)(C)C [(S)-5F-MDMB-PICA (3), methyl 2-[1-(5-fluoropentyl)-1H-indole-3-carboxamido]-3,3-dimethylbutanoate] | 0.062 | 0.062 ± 0.0007 | 7.87 ± 0.58 mL/min/kg | 0.37 ± 0.027 | 0.36 ± 0.027 | 7.49 ± 0.56 mL/min/kg | 96.7% | 91.2% | 90.7% | 77.0% | 57.6% | 42.5% | 30.9% | 188 mL/min/kg | 38 ± 4.6 min | 99.5 ± 5.8% | 97.3 ± 6.4% | 8.01 ± 0.84 mL/min/kg | 0.38 ± 0.04 | 128 mL/min/kg | CLint scaled at 0.5 µM [5, 12]: 181 ± 31.6 mL/min/kg; half-life at 0.5 µM [5]: 9 ± 1.4 min; % parent compound remaining, Average ([5]; pHLM, 3 min): 63.9%; % parent compound remaining, Average ([5]; pHLM, 6 min): 56.3%; % parent compound remaining, Average ([5]; pHLM, 9 min): 49.2%; % parent compound remaining, Average ([5]; pHLM, 15 min): 32.1%; % parent compound remaining, Average ([5]; pHLM, 30 min): 12.8%; Microsomal Intrinsic Clearance, CLint micr ([5]; pHLM): 0.156 ± 0.027 mL min^−1 mg Microsomal Protein^−1; Hepatic extraction ratio, EH [5, 13]: 0.27 ± 0.034; Predicted in vivo hepatic clearance, CLH [5, 13]: 5.75 mL/min/kg; Hepatic extraction ratio, EH [5, 14]: 0.35 ± 0.038; Predicted in vivo hepatic clearance, CLH [5, 14]: 7.27 ± 0.81 mL/min/kg
